Measurements: patent US12168008B2, “Oxabicycloheptanes for modulation of immune response” (LIXTE BIOTECHNOLOGY, INC., priority 2016, dated 2024)
Read-outs that look alike come from different tables or passages of the source.

Assays:
[1] = tested on: mTORC1, mTORC2 and PI(3)K-AKT pathways; experiment: Phosphoflow of AKT and S6 in activated CD3 cells; type: cell-based, mouse; conditions: after 3 hours of activation
Method: After 3 hours of in vitro activation of isolated CD3 cells, the activity of mTORC1, mTORC2 and PI(3)K-AKT pathways were assessed by checking the phosphorylation of ribosomal S6 protein (S6), AKT at […] and AKT at Thr308 respectively. […] This difference was not observed in any of the 3 pathways at an early time point of 30 minutes after activation (FIG. 37).
Isolation of TILs—Mice were injected in the right thoracic flank with 0.5×10^6 CT26 cells and treated as above after tumors reached between 50-100 mm^3. After 2 treatments, mice were sacrificed and tumors excised. Tumors were subjected to mechanical disruption using a GentleMACS Dissociator (Miltenyi Biotec) in presence of enzymatic digestion using Tumor Dissociation Kit (Miltenyi Biotec). Intracellular cytokine staining, phosphoflow and flow cytometry—Suspensions containing T cells were stained with a fixable live/dead stain (Invitrogen) in PBS followed by surface antibody staining in FACS buffer (PBS with 0.5% BSA and 0.1% sodium azide). For intracellular staining, cells were stained for surface molecules following by fixation and permeabilization (eBioscience). For cytokine staining, cells were first stimulated with Cell Stimulation Cocktail (eBioscience) containing PMA/Ionomycin and protein transport inhibitor prior to undergoing staining. […] Cells were analyzed by flow cytometry (LSRII; BD Bioscience). […]

[2] = type: in vivo, human; conditions: for dose limiting toxicity (reversible increases in serum creatinine or calculated serum creatinine clearance): 3.1 mg/m2
Method: Experimental Design: LB-100 was administered intravenously daily for 3 days in 21-day cycles in a 3+3 dose-escalation design. The primary goal was to determine the maximum tolerated dose and recommended phase 2 dose (ClinicalTrials.gov: NCT01837667).
Eligible patients were aged 18 years or older with proven progressive solid tumors who had failed standard treatments. Patients had to have a life expectancy of at least 12 weeks, an ECOG performance status of 0 or 1, and be able to give informed consent. […] They must not have any other uncontrolled systemic disease. Women of childbearing potential had to have a negative serum or urine pregnancy test result.
An open-label, dose-escalation, phase I study was performed to assess the safety, tolerability, and activity of LB-100 administered for 3 consecutive days every 3 weeks. Pharmacokinetic studies were planned at the maximum tolerable dose (MTD). The starting dose, 0.25 mg/m^2, 1/15th of the highest non-severely toxic dose in dogs, and plan of dose escalation was specified by the FDA. The study was approved by the human investigations committee at each study center and is registered at clinicaltrials.gov: NCT01837667.
LB-100 was supplied as a single use solution. Initially, LB-100 was administered in 50 mL of saline over 15 minutes. […] Dose escalation was prohibited within any cohort. Patients were eligible to receive up to 6 cycles of study therapy, unless unacceptable toxicity, disease progression, or inter-current illness required discontinuation. More than 6 cycles were allowed in the absence of progression and toxicity. Because of cardiac and renal toxicity at high doses in animal toxicology studies, patients had extensive monitoring including ECG, MUGA or echocardiogram, cardiac troponins, and BNP prior to every cycle. Blood chemistries, urinalysis, hematologic profile and vital signs were monitored prior to and on day 1, 3, 8, 15, and 22 of each cycle. Laboratory parameters were tabulated by maximum NCI-CTCAE (Version 4.0) severity grade. A safety review committee assessed all clinical data every 2 weeks and approved dose escalation between cohorts.
Doses of LB-100 were escalated in groups of three patients. […] When a potential DLT occurred, three new patients were entered at that dose. If another DLT occurred, three additional patients were treated at the previous non-DLT dose to determine the safety of that level for phase 2 trials.
(§1) Response to treatment was assessed using RECIST version 1.1. All patients with measurable disease, who completed 2 cycles of LB-100 and had at least 1 post-baseline tumor assessment, were evaluable for efficacy. Patients receiving any LB-100 were evaluable for safety. The severity of adverse events and laboratory abnormalities is reported according to NCI-CTCAE version 4.0 and coded using Medical Dictionary for Regulatory Activities.

progressive solid tumors = experiment: Phase I study: clinical activity (RECIST 1.1); type: in vivo, human
Method: as §1

[3] = of 20 patients with measurable disease

## CN1CCN(C(=O)C2C(C(=O)O)[C@H]3CC[C@@H]2O3)CC1 (stereo partly drawn) [LB-100]
[1]
  activity of mTORC1 as measured by phosphorylation of S6: dose dependent increase
  mTORC2 and PI(3)K-AKT pathways (AKT phosphorylation): minimal effect
[2]; 0.25-2.33 mg/m^2
  DLT during the first 6 dose levels: no DLT
[2]; Grade 1-2
  HEADACHE, patients n (%): 3 (10.3%)
[2]; Grade 3
  HEADACHE, patients n (%): 0
[2]; Grade 4
  HEADACHE, patients n (%): 0
[2]; Grade 5
  ABDOMINAL DISCOMFORT, patients n (%): 0
  ABDOMINAL DISTENSION, patients n (%): 0
  ACCELERATED HYPERTENSION, patients n (%): 0
  ALANINE AMINOTRANSFERASE INCREASED, patients n (%): 0
  ANAEMIA, patients n (%): 0
  ARTHRALGIA, patients n (%): 0
  BLOOD ALKALINE PHOSPHATASE INCREASED, patients n (%): 0
  BLOOD UREA INCREASED, patients n (%): 0
  CANDIDIASIS, patients n (%): 0
  CHEST PAIN, patients n (%): 0
  CHILLS, patients n (%): 0
  CONSTIPATION, patients n (%): 0
  DECREASED APPETITE, patients n (%): 0
  DERMATITIS ACNEIFORM, patients n (%): 0
  DIARRHOEA, patients n (%): 0
  DIZZINESS, patients n (%): 0
  EJECTION FRACTION DECREASED, patients n (%): 0
  ELECTROCARDIOGRAM QT PROLONGED, patients n (%): 0
  GAIT DISTURBANCE, patients n (%): 0
  GASTROINTESTINAL DISORDER, patients n (%): 0
  GENERALISED OEDEMA, patients n (%): 0
  GINGIVAL PAIN, patients n (%): 0
  HEADACHE, patients n (%): 0
  HYPERCALCAEMIA, patients n (%): 0
  HYPERKALAEMIA, patients n (%): 0
  HYPERNATRAEMIA, patients n (%): 0
  HYPERTENSION, patients n (%): 0
  HYPOAESTHESIA, patients n (%): 0
  HYPOALBUMINAEMLA, patients n (%): 0
  HYPOKINESIA, patients n (%): 0
  HYPOTENSION, patients n (%): 0
  HYPOXIA, patients n (%): 0
  INSOMNIA, patients n (%): 0
  MUCOSAL INFLAMMATION, patients n (%): 0
  MUSCLE TWITCHING, patients n (%): 0
  MUSCULAR WEAKNESS, patients n (%): 0
  NAUSEA, patients n (%): 0
  NEUROPATHY PERIPHERAL, patients n (%): 0
  NEUTROPENIA, patients n (%): 0
  OEDEMA PERIPHERAL, patients n (%): 0
  OEDEMA, patients n (%): 0
  PAIN OF SKIN, patients n (%): 0
  PERIPHERAL COLDNESS, patients n (%): 0
  PERIPHERAL SENSORY NEUROPATHY, patients n (%): 0
  PLATELET COUNT DECREASED, patients n (%): 0
  PLEURAL EFFUSION, patients n (%): 0
  PROTEINURIA, patients n (%): 0
  PYREXIA, patients n (%): 0
  SINUS TACHYCARDIA, patients n (%): 0
[2]; daily for 3 days every 3 weeks, i.v.
  recommended phase 2 dose: 2.33 mg/m2
[2]; human, in vivo
  Probable or possible study drug related Grade 3 adverse events: 6 (20.7%) patients (%)
  dose limiting toxicity (reversible increases in serum creatinine or calculated serum creatinine clearance): 2/4
[2]; in vivo
  symptomatic toxicity: no symptomatic toxicity other than reversible mild to moderate fatigue
  toxicities suggestive of autoimmune activity: no patient experienced toxicities suggestive of autoimmune activity
  dose limiting toxicity (reversible increases in serum creatinine or calculated serum creatinine clearance): Two
Progressive solid tumors; atypical carcinoid of the lung, 0.83 mg/m^2
  duration of partial response or stability of disease: 5 cycles
Progressive solid tumors; breast cancer, 1.25 mg/m^2
  duration of partial response or stability of disease: 4 cycles
Progressive solid tumors; chondrosarcoma, 3.1 mg/m^2
  duration of partial response or stability of disease: 8 cycles
Progressive solid tumors; fibrosarcoma, started at 3.1 mg/m^2, two dose reductions
  duration of partial response or stability of disease: 12 cycles
Progressive solid tumors; malignant thymoma, 1.75 mg/m^2
  duration of partial response or stability of disease: 8 cycles
Progressive solid tumors; [3]
  no progression of indicator lesion(s): 16 patients
  significant increases in the size of indicator lesion(s) by RECIST criteria: 3 patients
Progressive solid tumors; ovarian cancer, 1.75 mg/m^2
  duration of partial response or stability of disease: 6 cycles
Progressive solid tumors; pancreatic cancer, 0.83 mg/m^2
  duration of partial response or stability of disease: 15 cycles
Progressive solid tumors; pancreatic carcinoma, noted after 10 cycles, maintained 5 more cycles, of 20 patients
  partial response: One and one
Progressive solid tumors; testicular cancer, 1.25 mg/m^2
  duration of partial response or stability of disease: 5 cycles
